{"source": "paper PMC6327044", "about": "“A chemical biology screen identifies a vulnerability of neuroendocrine cancer cells to SQLE inhibition” (Nature Communications, 2019)", "assay_in_all_cases": "cells", "parameters_in_all_cases": "species or system panel of 482 human cancer cell lines; ATPLite luminescence growth inhibition after treatment, nine-point dilution curve, 482 cancer cell lines, 384-well", "details_in_all_cases": "72 h, recommended growth medium", "key": {"NCIH2405_LUNG": {"system": "NCIH2405_LUNG", "in_short": "(§1)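 Growth inhibition was measured across a panel of 482 cancer cell lines. Cells were plated at 500 cells per well in recommended growth media in black, tissue culture treated 384-well plates, centrifuged to equilibrate, and incubated 24 h before dosing. Compounds were tested as nine-point dilution curves for 72 h, with viability read by ATPLite luminescence relative to DMSO-treated controls.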"}, "DU4475_BREAST": {"system": "DU4475_BREAST", "in_short": "as §1"}, "FARAGE_NS": {"system": "FARAGE_NS", "in_short": "as §1"}, "SKNFI_AUTONOMIC_GANGLIA": {"system": "SKNFI_AUTONOMIC_GANGLIA", "in_short": "as §1"}, "LU24_LUNG": {"system": "LU24_LUNG", "in_short": "as §1"}, "LK2_LUNG": {"system": "LK2_LUNG", "in_short": "as §1"}, "NCIN87_STOMACH": {"system": "NCIN87_STOMACH", "in_short": "as §1"}, "HEC1A_ENDOMETRIUM": {"system": "HEC1A_ENDOMETRIUM", "in_short": "as §1"}, "2313287_STOMACH": {"system": "2313287_STOMACH", "in_short": "as §1"}, "A427_LUNG": {"system": "A427_LUNG", "in_short": "as §1"}, "SKNBE2_AUTONOMIC_GANGLIA": {"system": "SKNBE2_AUTONOMIC_GANGLIA", "in_short": "as §1"}, "KYSE510_OESOPHAGUS": {"system": "KYSE510_OESOPHAGUS", "in_short": "as §1"}, "NCIH1435_LUNG": {"system": "NCIH1435_LUNG", "in_short": "as §1"}, "[1]": {"system": "KMS20_HAEMATOPOIETIC_AND_LYMPHOID_TISSUE", "in_short": "as §1"}, "[2]": {"system": "KPNRTBM1_AUTONOMIC_GANGLIA", "in_short": "as §1"}, "[3]": {"system": "CAL27_UPPER_AERODIGESTIVE_TRACT", "in_short": "as §1"}, "[4]": {"system": "YD10B_UPPER_AERODIGESTIVE_TRACT", "in_short": "as §1"}}, "data": [{"smiles": "CCN(C/C=C/C#CC(C)(C)C)Cc1cccc(OCc2cc(-c3ccsc3)cs2)c1", "note": "[NB-598]", "values": [{"measurement": "GI50", "setting": "NCIH2405_LUNG", "value": 39.4, "unit": "nM"}, {"measurement": "GI50", "setting": "DU4475_BREAST", "value": 61.7, "unit": "nM"}, {"measurement": "GI50", "setting": "FARAGE_NS", "value": 14.2, "unit": "nM"}, {"measurement": "GI50", "setting": "SKNFI_AUTONOMIC_GANGLIA", "value": 15.1, "unit": "nM"}, {"measurement": "GI50", "setting": "LU24_LUNG", "value": 6570, "unit": "nM"}, {"measurement": "GI50", "setting": "LK2_LUNG", "value": 22.4, "unit": "nM"}, {"measurement": "GI50", "setting": "NCIN87_STOMACH", "value": 9650, "unit": "nM"}, {"measurement": "GI50", "setting": "HEC1A_ENDOMETRIUM", "value": 12600, "unit": "nM"}, {"measurement": "GI50", "setting": "2313287_STOMACH", "value": 2190, "unit": "nM"}, {"measurement": "GI50", "setting": "A427_LUNG", "value": 5.55, "unit": "nM"}, {"measurement": "GI50", "setting": "SKNBE2_AUTONOMIC_GANGLIA", "value": 20.3, "unit": "nM"}, {"measurement": "GI50", "setting": "KYSE510_OESOPHAGUS", "value": 73.1, "unit": "nM"}, {"measurement": "GI50", "setting": "NCIH1435_LUNG", "value": 3.11, "unit": "nM"}, {"measurement": "GI50", "setting": "[1]", "value": 6540, "unit": "nM"}, {"measurement": "GI50", "setting": "[2]", "value": 3490, "unit": "nM"}, {"measurement": "GI50", "setting": "[3]", "value": 12400, "unit": "nM"}, {"measurement": "GI50", "setting": "[4]", "value": 71.4, "unit": "nM"}]}]}
